Test results reported in US10738028B2, “Spiro three-membered ring, spiro five-membered ring peptide deformylase inhibitor and use thereof in antibacteria and anti-tumor” (priority 2016, dated 2020).

How the values were obtained:
Type in all cases: cell-based
[1] = test system: Enterococcus faecalis (EFA); assay: MIC, two-fold agar dilution (CLSI), clinical isolates
Summary of the method: (§1)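 Following the American Clinical and Laboratory Standards Institute procedure, agar two-fold dilution served to determine minimum inhibitory concentrations.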

[2] = test system: Enterococcus faecium (EFM); assay: as above
Summary of the method: as §1

[3] = test system: Escherichia coli (including ESBLs, non-ESBLs); assay: as above; settings: for Anti-bacterial activity (MIC), strain ECO+ 15-1: clinical isolate ECO+ 15-1; for Anti-bacterial activity (MIC), strain ECO+ 15-2: clinical isolate ECO+ 15-2; for Anti-bacterial activity (MIC), strain ECO+ 15-3: clinical isolate ECO+ 15-3; for Anti-bacterial activity (MIC), strain ECO+ 15-4: clinical isolate ECO+ 15-4; for Anti-bacterial activity (MIC), strain ECO− 15-1: clinical isolate ECO− 15-1; for Anti-bacterial activity (MIC), strain ECO− 15-2: clinical isolate ECO− 15-2; for Anti-bacterial activity (MIC), strain ECO− 15-3: clinical isolate ECO− 15-3; for Anti-bacterial activity (MIC), strain ECO− 15-4: clinical isolate ECO− 15-4
Summary of the method: as §1

[4] = test system: Moraxella catarrhalis (BCA); assay: as above
Summary of the method: as §1

[5] = test system: Streptococcus pneoumoniae (SPN); assay: as above
Summary of the method: as §1

[6] = test system: methicillin-resistant Staphylococcus aureus (MRSA); assay: as above; settings: for Anti-bacterial activity (MIC), strain MRSA 15-1: clinical isolate MRSA 15-1; for Anti-bacterial activity (MIC), strain MRSA 15-2: clinical isolate MRSA 15-2; for Anti-bacterial activity (MIC), strain MRSA 15-3: clinical isolate MRSA 15-3; for Anti-bacterial activity (MIC), strain MRSA 15-4: clinical isolate MRSA 15-4
Summary of the method: as §1

[7] = test system: methicillin-resistant Staphylococcus epidermidis (MRSE); assay: as above; settings: for Anti-bacterial activity (MIC), strain MRSE 15-1: clinical isolate MRSE 15-1; for Anti-bacterial activity (MIC), strain MRSE 15-2: clinical isolate MRSE 15-2; for Anti-bacterial activity (MIC), strain MRSE 15-3: clinical isolate MRSE 15-3; for Anti-bacterial activity (MIC), strain MRSE 15-7: clinical isolate MRSE 15-7
Summary of the method: as §1

[8] = test system: methicillin-sensitive Staphylococcus aureus (MSSA); assay: as above; settings: for Anti-bacterial activity (MIC), strain MSSA 15-3: clinical isolate MSSA 15-3; for Anti-bacterial activity (MIC), strain MSSA 15-4: clinical isolate MSSA 15-4; for Anti-bacterial activity (MIC), strain MSSA 15-5: clinical isolate MSSA 15-5; for Anti-bacterial activity (MIC), strain MSSA 15-6: clinical isolate MSSA 15-6
Summary of the method: as §1

[9] = test system: methicillin-sensitive Staphylococcus epidermidis (MSSE); assay: as above; settings: for Anti-bacterial activity (MIC), strain MSSE 15-3: clinical isolate MSSE 15-3; for Anti-bacterial activity (MIC), strain MSSE 15-4: clinical isolate MSSE 15-4; for Anti-bacterial activity (MIC), strain MSSE 15-5: clinical isolate MSSE 15-5; for Anti-bacterial activity (MIC), strain MSSE 15-6: clinical isolate MSSE 15-6
Summary of the method: as §1

[10] = test system: HCT-116 colorectal cancer cell line; assay: CCK-8 proliferation inhibition; settings: Homo sapiens, HCT-116, 72 h, concentration of 30 μM; 72 hours; CCK-8; read-out: HCT116 inhibition rate/%
Summary of the method: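 Proliferation over 72 hours of compound treatment was measured with CCK-8 against a 1‰ DMSO control.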

CCCC[C@H](CC(=O)NO)C(=O)N1CC2(CC2)C[C@H]1c1nc2ccccc2n1CCN(C)C [Example 60, (R)-3-((S)-6-(1-(2-(dimethylamino)ethyl)-1H-benzimidazol-2-yl)-5-azaspiro[2.4]heptane-5-carbonyl)-N-hydroxyheptanamide]
> 32 µg/mL: Anti-bacterial activity (MIC), strain EFA 15-1 ([1]; clinical isolate EFA 15-1) | Anti-bacterial activity (MIC), strain EFA 15-2 ([1]; clinical isolate EFA 15-2) | Anti-bacterial activity (MIC), strain EFA 15-3 ([1]; clinical isolate EFA 15-3) | Anti-bacterial activity (MIC), strain EFA 15-4 ([1]; clinical isolate EFA 15-4) | Anti-bacterial activity (MIC), strain EFA 15-5 ([1]; clinical isolate EFA 15-5) | Anti-bacterial activity (MIC), strain EFA 15-6 ([1]; clinical isolate EFA 15-6) | Anti-bacterial activity (MIC), strain EFA 15-9 ([1]; clinical isolate EFA 15-9) | Anti-bacterial activity (MIC), strain EFM 15-1 ([2]; clinical isolate EFM 15-1) | Anti-bacterial activity (MIC), strain EFM 15-2 ([2]; clinical isolate EFM 15-2) | Anti-bacterial activity (MIC), strain EFM 15-3 ([2]; clinical isolate EFM 15-3) | Anti-bacterial activity (MIC), strain EFM 15-4 ([2]; clinical isolate EFM 15-4) | Anti-bacterial activity (MIC), strain ECO+ 15-1 [3] | Anti-bacterial activity (MIC), strain ECO+ 15-2 [3] | Anti-bacterial activity (MIC), strain ECO+ 15-3 [3] | Anti-bacterial activity (MIC), strain ECO+ 15-4 [3] | Anti-bacterial activity (MIC), strain ECO− 15-1 [3] | Anti-bacterial activity (MIC), strain ECO− 15-2 [3] | Anti-bacterial activity (MIC), strain ECO− 15-3 [3] | Anti-bacterial activity (MIC), strain ECO− 15-4 [3] | Anti-bacterial activity (MIC), strain BCA 14-1 ([4]; clinical isolate BCA 14-1) | Anti-bacterial activity (MIC), strain BCA 14-4 ([4]; clinical isolate BCA 14-4) | Anti-bacterial activity (MIC), strain BCA 14-5 ([4]; clinical isolate BCA 14-5) | Anti-bacterial activity (MIC), strain BCA 14-6 ([4]; clinical isolate BCA 14-6) | Anti-bacterial activity (MIC), strain BCA 14-7 ([4]; clinical isolate BCA 14-7) | Anti-bacterial activity (MIC), strain BCA 14-8 ([4]; clinical isolate BCA 14-8) | Anti-bacterial activity (MIC), strain BCA 14-10 ([4]; clinical isolate BCA 14-10) | Anti-bacterial activity (MIC), strain MRSA 15-1 [6] | Anti-bacterial activity (MIC), strain MRSA 15-2 [6] | Anti-bacterial activity (MIC), strain MRSA 15-3 [6] | Anti-bacterial activity (MIC), strain MRSA 15-4 [6] | Anti-bacterial activity (MIC), strain MRSE 15-1 [7] | Anti-bacterial activity (MIC), strain MRSE 15-2 [7] | Anti-bacterial activity (MIC), strain MRSE 15-3 [7] | Anti-bacterial activity (MIC), strain MRSE 15-7 [7] | Anti-bacterial activity (MIC), strain MSSA 15-3 [8] | Anti-bacterial activity (MIC), strain MSSA 15-4 [8] | Anti-bacterial activity (MIC), strain MSSA 15-5 [8] | Anti-bacterial activity (MIC), strain MSSA 15-6 [8] | Anti-bacterial activity (MIC), strain MSSE 15-3 [9] | Anti-bacterial activity (MIC), strain MSSE 15-4 [9] | Anti-bacterial activity (MIC), strain MSSE 15-5 [9] | Anti-bacterial activity (MIC), strain MSSE 15-6 [9]
1 µg/mL: Anti-bacterial activity (MIC), strain SPN 16-2 ([5]; clinical isolate SPN 16-2) | Anti-bacterial activity (MIC), strain SPN 16-4 ([5]; clinical isolate SPN 16-4)
8 µg/mL: Anti-bacterial activity (MIC), strain EFM 15-5 ([2]; clinical isolate EFM 15-5)
32 µg/mL: Anti-bacterial activity (MIC), strain EFM 15-6 ([2]; clinical isolate EFM 15-6)
-2%: inhibition at 30 µM [10]

O=C(C[C@@H](CC1CCCC1)C(=O)N1CC2(CC2)C[C@H]1C(=O)NC1CC1)NO [Example 68]
2 µg/mL: Anti-bacterial activity (MIC) ([4]; strain BCA 14-10) | Anti-bacterial activity (MIC) ([5]; strain SPN 16-2)
> 32 µg/mL: Anti-bacterial activity (MIC) ([1]; strain EFA 15-1) | Anti-bacterial activity (MIC) ([1]; strain EFA 15-2) | Anti-bacterial activity (MIC) ([1]; strain EFA 15-3) | Anti-bacterial activity (MIC) ([1]; strain EFA 15-4) | Anti-bacterial activity (MIC) ([1]; strain EFA 15-5) | Anti-bacterial activity (MIC) ([1]; strain EFA 15-6) | Anti-bacterial activity (MIC) ([2]; strain EFM 15-1) | Anti-bacterial activity (MIC) ([2]; strain EFM 15-2) | Anti-bacterial activity (MIC) ([2]; strain EFM 15-3) | Anti-bacterial activity (MIC), strain ECO+ 15-1 [3] | Anti-bacterial activity (MIC), strain ECO+ 15-2 [3] | Anti-bacterial activity (MIC), strain ECO+ 15-3 [3] | Anti-bacterial activity (MIC), strain ECO+ 15-4 [3] | Anti-bacterial activity (MIC), strain ECO− 15-1 [3] | Anti-bacterial activity (MIC), strain ECO− 15-2 [3] | Anti-bacterial activity (MIC), strain ECO− 15-3 [3] | Anti-bacterial activity (MIC), strain ECO− 15-4 [3] | Anti-bacterial activity (MIC), strain MRSA 15-1 [6] | Anti-bacterial activity (MIC), strain MRSA 15-2 [6] | Anti-bacterial activity (MIC), strain MRSA 15-3 [6] | Anti-bacterial activity (MIC), strain MRSA 15-4 [6] | Anti-bacterial activity (MIC), strain MRSE 15-1 [7] | Anti-bacterial activity (MIC), strain MRSE 15-2 [7] | Anti-bacterial activity (MIC), strain MRSE 15-3 [7] | Anti-bacterial activity (MIC), strain MRSE 15-7 [7] | Anti-bacterial activity (MIC), strain MSSA 15-3 [8] | Anti-bacterial activity (MIC), strain MSSA 15-4 [8] | Anti-bacterial activity (MIC), strain MSSA 15-5 [8] | Anti-bacterial activity (MIC), strain MSSA 15-6 [8] | Anti-bacterial activity (MIC), strain MSSE 15-3 [9] | Anti-bacterial activity (MIC), strain MSSE 15-4 [9] | Anti-bacterial activity (MIC), strain MSSE 15-5 [9] | Anti-bacterial activity (MIC), strain MSSE 15-6 [9]
21%: inhibition at 30 µM [10]
32 µg/mL: Anti-bacterial activity (MIC) ([1]; strain EFA 15-9) | Anti-bacterial activity (MIC) ([2]; strain EFM 15-4) | Anti-bacterial activity (MIC) ([4]; strain BCA 14-1) | Anti-bacterial activity (MIC) ([4]; strain BCA 14-4) | Anti-bacterial activity (MIC) ([4]; strain BCA 14-6) | Anti-bacterial activity (MIC) ([4]; strain BCA 14-7) | Anti-bacterial activity (MIC) ([4]; strain BCA 14-8)
4 µg/mL: Anti-bacterial activity (MIC) ([2]; strain EFM 15-5) | Anti-bacterial activity (MIC) ([2]; strain EFM 15-6) | Anti-bacterial activity (MIC) ([4]; strain BCA 14-5)
1 µg/mL: Anti-bacterial activity (MIC) ([5]; strain SPN 16-4)

O=C(C[C@@H](CC1CCCC1)C(=O)N1CC2(CC2)C[C@H]1C(=O)Nc1ncco1)NO [Example 69]
1 µg/mL: Anti-bacterial activity (MIC) ([5]; strain SPN 16-4) | Anti-bacterial activity (MIC), strain MSSE 15-3 [9]
15%: inhibition at 30 µM [10]
32 µg/mL: Anti-bacterial activity (MIC), strain ECO+ 15-1 [3] | Anti-bacterial activity (MIC), strain ECO+ 15-2 [3] | Anti-bacterial activity (MIC), strain ECO+ 15-3 [3] | Anti-bacterial activity (MIC), strain ECO− 15-1 [3] | Anti-bacterial activity (MIC), strain ECO− 15-2 [3] | Anti-bacterial activity (MIC), strain ECO− 15-3 [3] | Anti-bacterial activity (MIC), strain ECO− 15-4 [3]
4 µg/mL: Anti-bacterial activity (MIC) ([4]; strain BCA 14-10)
2 µg/mL: Anti-bacterial activity (MIC) ([5]; strain SPN 16-2) | Anti-bacterial activity (MIC), strain MRSA 15-1 [6] | Anti-bacterial activity (MIC), strain MRSA 15-3 [6] | Anti-bacterial activity (MIC), strain MSSA 15-4 [8] | Anti-bacterial activity (MIC), strain MSSA 15-5 [8] | Anti-bacterial activity (MIC), strain MSSE 15-6 [9]
> 32 µg/mL: Anti-bacterial activity (MIC) ([1]; strain EFA 15-1) | Anti-bacterial activity (MIC) ([1]; strain EFA 15-2) | Anti-bacterial activity (MIC) ([1]; strain EFA 15-3) | Anti-bacterial activity (MIC) ([1]; strain EFA 15-4) | Anti-bacterial activity (MIC) ([1]; strain EFA 15-5) | Anti-bacterial activity (MIC) ([1]; strain EFA 15-6) | Anti-bacterial activity (MIC) ([1]; strain EFA 15-9) | Anti-bacterial activity (MIC) ([2]; strain EFM 15-1) | Anti-bacterial activity (MIC) ([2]; strain EFM 15-2) | Anti-bacterial activity (MIC) ([2]; strain EFM 15-3) | Anti-bacterial activity (MIC) ([2]; strain EFM 15-4) | Anti-bacterial activity (MIC), strain ECO+ 15-4 [3] | Anti-bacterial activity (MIC) ([4]; strain BCA 14-1) | Anti-bacterial activity (MIC) ([4]; strain BCA 14-4) | Anti-bacterial activity (MIC) ([4]; strain BCA 14-6) | Anti-bacterial activity (MIC) ([4]; strain BCA 14-7) | Anti-bacterial activity (MIC) ([4]; strain BCA 14-8) | Anti-bacterial activity (MIC), strain MSSA 15-6 [8]
8 µg/mL: Anti-bacterial activity (MIC) ([2]; strain EFM 15-5) | Anti-bacterial activity (MIC) ([2]; strain EFM 15-6) | Anti-bacterial activity (MIC) ([4]; strain BCA 14-5) | Anti-bacterial activity (MIC), strain MRSA 15-2 [6] | Anti-bacterial activity (MIC), strain MRSA 15-4 [6] | Anti-bacterial activity (MIC), strain MRSE 15-1 [7] | Anti-bacterial activity (MIC), strain MRSE 15-2 [7] | Anti-bacterial activity (MIC), strain MRSE 15-3 [7] | Anti-bacterial activity (MIC), strain MRSE 15-7 [7] | Anti-bacterial activity (MIC), strain MSSA 15-3 [8] | Anti-bacterial activity (MIC), strain MSSE 15-4 [9] | Anti-bacterial activity (MIC), strain MSSE 15-5 [9]
